The values below are quoted from earlier work in patent publication US20060079683A1, “Arylthiobenzylpiperidine derivatives” (priority 2004, published 2006).

Molecules are shown by their SMILES.

Common to all, as to settings: B. Borowsky, et al., Nature Medicine, 2002
Data set [1] concerns the target T1, MCH1 receptor (Cavia porcellus, UniProt H0VKT7).
T1 construct: host or cells: living guinea pig, endogenous receptor

Data set [2] concerns the target T2, MCH1 receptor (Rattus norvegicus, UniProt P97639).
T2 construct: host or cells: living rat, endogenous receptor

The target of data set [3] is T2, MCH1 receptor. This is another data set of the same source.

T2 sequence (P97639 whole entry): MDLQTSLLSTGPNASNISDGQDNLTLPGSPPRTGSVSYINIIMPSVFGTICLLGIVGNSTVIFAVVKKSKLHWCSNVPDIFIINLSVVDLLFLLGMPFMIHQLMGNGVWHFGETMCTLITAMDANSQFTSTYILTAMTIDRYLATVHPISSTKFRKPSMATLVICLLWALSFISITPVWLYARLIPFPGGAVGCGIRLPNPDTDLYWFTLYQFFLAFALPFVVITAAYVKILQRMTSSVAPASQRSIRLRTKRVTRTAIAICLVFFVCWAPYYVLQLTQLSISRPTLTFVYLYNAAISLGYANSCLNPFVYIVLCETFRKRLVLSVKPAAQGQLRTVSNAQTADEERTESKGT
T1 sequence (H0VKT7 1-355): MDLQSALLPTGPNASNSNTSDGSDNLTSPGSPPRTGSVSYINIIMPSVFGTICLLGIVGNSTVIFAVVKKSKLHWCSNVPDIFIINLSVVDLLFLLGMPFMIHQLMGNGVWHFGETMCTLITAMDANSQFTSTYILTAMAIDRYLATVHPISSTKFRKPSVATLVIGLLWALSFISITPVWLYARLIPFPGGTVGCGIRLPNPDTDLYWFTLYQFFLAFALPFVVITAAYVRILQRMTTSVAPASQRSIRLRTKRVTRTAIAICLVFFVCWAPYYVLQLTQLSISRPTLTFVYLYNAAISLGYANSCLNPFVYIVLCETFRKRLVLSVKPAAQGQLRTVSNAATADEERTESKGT

In the case of `COCC1=C(C(=O)OC)[C@H](c2ccc(F)c(F)c2)N(C(=O)NCCCN2CCC(c3cccc(NC(C)=O)c3)CC2)C(=O)N1` [SNAP-7941], the “profile in behavioral model of depression and/or anxiety: guinea pig maternal-separation vocalization” value on MCH1 receptor [1] is “profile similar to clinically used anti-depressants and anxiolytics”. For the same molecule, the “profile in behavioral model of depression and/or anxiety: rat forced-swim” value at MCH1 receptor [2] was “profile similar to clinically used anti-depressants and anxiolytics”. The “profile in behavioral model of depression and/or anxiety: rat social interaction” value on MCH1 receptor [3] is “profile similar to clinically used anti-depressants and anxiolytics”.
